The numbers were not newly measured in patent US20040037773A1, “Method for detecting abnormal tissue using enhanced radiopharmaceutical uptake” (Block Medical Center, priority 2002, published 2004), which cites them from elsewhere.

The test system of the data set is mitochondria. The settings on record: energy dependent manner.

For `[99Tc+].[C-]#[N+]CC(C)(C)OC.[C-]#[N+]CC(C)(C)OC.[C-]#[N+]CC(C)(C)OC.[C-]#[N+]CC(C)(C)OC.[C-]#[N+]CC(C)(C)OC.[C-]#[N+]CC(C)(C)OC` [sestamibi, Technetium-99m hexakis 2-methoxyisobutylisonitrile], the “Share of sestamibi taken up by mitochondria” value is recorded as “over 90%”.
